What was measured:
HepG2 [1] = assay: Cytotoxicity against human HepG2 cells measured after 48 hrs by MTT assay; type: functional, cell-based; details: HepG2, 48 h
HepG2 [2] = assay: Cytotoxicity against human adriamycin-resistant HepG2 cells measured after 48 hrs by MTT assay; type: functional, cell-based; details: HepG2, 48 h
[3] = Cytotoxicity against human Hep3B cells measured after 48 hrs by MTT assay; type: functional, cell-based, Hep 3B2

CC(=O)O[C@@H]1C(=O)[C@H](C)[C@@H]2CC(=O)O[C@@H]3C[C@H]4[C@H](C)C[C@H](O)C(=O)[C@]4(C)[C@@H]1[C@@]32C
IC50 (HepG2 [1]): > 50 µM
IC50 (HepG2 [2]): > 50 µM
IC50 [3]: > 50 µM

C/C=C(/C)C(=O)O[C@@H]1[C@H]2C(C)=C[C@H](O)[C@@H](O)[C@]2(C)[C@H]2[C@@]3(O)OC[C@@]24[C@@H]1OC(=O)C[C@H]4[C@@H](C)[C@H]3O
IC50 (HepG2 [1]): 10.5 µM
IC50 (HepG2 [2]): > 50 µM
IC50 [3]: 2.43 µM

C=C1[C@@H](O)[C@]2(O)OC[C@@]34[C@H]1[C@@H](OC(=O)[C@](C)(O)CC)C(=O)O[C@@H]3C[C@H]1C(C)=C[C@H](O)[C@@H](O)[C@]1(C)[C@@H]24
IC50 (HepG2 [1]): 1.15 µM
IC50 (HepG2 [2]): 19.6 µM
IC50 [3]: 0.98 µM

C/C=C(/C)C(=O)O[C@@H]1[C@H]2C(C)=CC(=O)[C@@H](O)[C@]2(C)[C@H]2[C@@]3(O)OC[C@@]24[C@@H]1OC(=O)C[C@H]4[C@@H](C)[C@H]3O
IC50 (HepG2 [1]): 0.55 µM
IC50 (HepG2 [2]): 16.9 µM
IC50 [3]: 0.05 µM

C=C1[C@@H](O)[C@@]2(O)OC[C@@]34[C@H]1[C@@H](OC(=O)C(O)(CC)COC(=O)/C(C)=C\C)C(=O)O[C@@H]3C[C@H]1C(C)=CC(=O)[C@@H](O)[C@]1(C)[C@@H]24 (stereo partly specified) [ALTISSINOL A]
IC50 (HepG2 [1]): 0.28 µM
IC50 (HepG2 [2]): > 50 µM
IC50 [3]: 0.37 µM

C=C1[C@@H](O)[C@@]2(O)OC[C@@]34[C@H]1[C@@H](OC(=O)C(C)CC)C(=O)O[C@@H]3C[C@H]1C(C)=C[C@H](O)[C@@H](O)[C@]1(C)[C@@H]24 (stereo partly specified) [ALTISSINOL B]
IC50 (HepG2 [1]): 1.22 µM
IC50 (HepG2 [2]): > 50 µM
IC50 [3]: 2.36 µM

C[C@@H]1C[C@H](O)C(=O)[C@]2(C)[C@H]3[C@H](O)C(=O)[C@H](C)[C@@H]4CC(=O)O[C@H](C[C@@H]12)[C@]34C [AMAROLIDE]
IC50 (HepG2 [1]): > 50 µM
IC50 (HepG2 [2]): > 50 µM
IC50 [3]: > 50 µM

CC1=CC(=O)[C@@H](O)[C@]2(C)[C@H]3[C@@]4(O)OC[C@@]35[C@@H](C[C@@H]12)OC(=O)C[C@H]5[C@@H](C)[C@H]4O [CHAPARRINONE]
IC50 (HepG2 [1]): 1.2 µM
IC50 (HepG2 [2]): > 50 µM
IC50 [3]: 2.17 µM

C[C@H]1[C@H](O)C(=O)[C@@H]2[C@@]3(C)[C@H](O)[C@@H](O)C[C@@H](C)[C@@H]3C[C@H]3OC(=O)C[C@@H]1[C@@]23C [CHAPARROLIDE]
IC50 (HepG2 [1]): > 50 µM
IC50 (HepG2 [2]): > 50 µM
IC50 [3]: > 50 µM

COc1cccc2c1C(=O)c1c(O)c3c(c(O)c1C2=O)C[C@@](O)(C(=O)CO)C[C@@H]3O[C@H]1C[C@H](N)[C@H](O)[C@H](C)O1 [DOXORUBICIN]
IC50 (HepG2 [2]): 85.5 µM
IC50 [3]: 0.29 µM

CC[C@](C)(O)C(=O)O[C@H]1C(=O)O[C@@H]2C[C@H]3C(C)=C[C@H](O)[C@@H](O)[C@]3(C)[C@H]3[C@]4(O)OC[C@]32[C@@H]1[C@@H](C)[C@H]4O [GLAUCARUBIN]
IC50 (HepG2 [1]): 35.6 µM
IC50 (HepG2 [2]): > 50 µM
IC50 [3]: 23.5 µM

C=C1[C@H](O)[C@]2(O)OC[C@]34[C@H]2[C@@]2(C)[C@H](O)[C@@H](O)C=C(C)[C@@H]2C[C@H]3OC(=O)C[C@@H]14 [SHINJULACTONE A]
IC50 (HepG2 [1]): 4.67 µM
IC50 (HepG2 [2]): > 50 µM
IC50 [3]: 8.01 µM

CC1=CC(=O)O[C@@H]1[C@@]1(C)C[C@H]2OC(=O)C[C@H]3[C@@H](C)C(=O)C(O)=C1[C@@]23CO [SHINJULACTONE B]
IC50 (HepG2 [1]): > 50 µM
IC50 (HepG2 [2]): > 50 µM
IC50 [3]: > 50 µM

CC1=CC(=O)[C@]2(O)[C@@]3(O)C(=O)[C@@H]4[C@]5(CO)[C@H]6CC(=O)O[C@@H]5C[C@@]1([C@@]42C)[C@]63C [SHINJULACTONE C]
IC50 (HepG2 [1]): > 50 µM
IC50 (HepG2 [2]): > 50 µM
IC50 [3]: > 50 µM
